In assay [1] the test system is pigs in which lung injury was induced. The experiment in a line: Partial pressure of oxygen in arterial blood (PaO2) in pigs with HCl-induced pulmonary injury. The settings on record: pig. It is filed as in vivo, New Yorkshire male pigs. As for the experimental part:
(§1) A Teflon catheter was inserted into the femoral artery of each animal for measuring blood pressure, blood ANP level and blood gas. At the same time, a pulmonary arterial cathether was inserted through the right cephalic vein for recording the changes in pulmonary arterial pressure. Pulmonary arterial pressure (PAP) and right atrial pressure (RAP) were measured with thermistor-tipped pressure transducers. Pulmonary capillary wedge pressure (PCWP) was measured with a baloon-fitted catheter. Cardiac output (CO) was calculated from the average of three measurements by the thermodilution method. Body temperature was measured with a thermistor inserted into the pulmonary artery and maintained at 37°-38° C. with the aid of a heat jacket. Electrocardiograms were induced from the four limbs and the ECC waveform and the number of heart beats were measured.

The test system is the same in assay [2]. As to the kind of experiment: Pulmonary arterial pressure (PAP) in pigs with HCl-induced pulmonary injury. Particulars: pig. The assay is classed as in vivo, New Yorkshire male pigs. The procedure: as §1
Assay [3] has the same test system. The experiment in a line: Blood pressure (BP) in pigs with HCl-induced pulmonary injury. It is filed as in vivo, New Yorkshire male pigs. Particulars: pig. As for the experimental part:
as §1

Assay [4] has the same test system. As to the kind of experiment: Urine excretion in pigs with HCl-induced pulmonary injury. The settings on record: pig, ANP versus furosemide.
Protocol: New Yorkshire male pigs weighing 16-24 kg were used in all experiments. The animals were allowed neither food nor water for 44 hr before test. They were initially anesthetized by intravenous injection of pentobarbital sodium (2.0 mg/kg) and pancuronium bromide (0.1 mg/kg) and, thereafter, the anesthetization was maintained by sustained intravenous injection of pentobarbital sodium (0.5 mg/kg/hr) and pancuronium bromide (0.1 mg/kg/hr). The animals were placed in prone position and ventilated at a frequency of 17 breaths/min with a tidal volume of 10-15 ml/kg, with the partial pressure of oxygen in arterial blood (PaO2) being held at 35-45 Torr. Physiological saline (5 ml/kg) was initially infused by intravenous injection, followed by sustained intravenous injection for 30 min at a rate of 4 ml/kg/hr.
A cannula was inserted into the bladder of each animal and urine samples were collected at 30-min intervals. Blood sampling and hemodynamic measurements were also conducted at 30-min Intervals but intermediate between collections of urine samples. Blood samples for assaying blood α-hANP levels were collected into chilled glass tubes each containing EDTA (0.1 mg/ml) and aprotinin (500 KIU/ml). […] Plasma α-hANP levels were measured by the RIA method using a rabbit anti α-hANP antibody. […]
The mark [5] stands for this setting: baseline (before HCl aspiration).

In the case of `NS(=O)(=O)c1cc(C(=O)O)c(NCc2ccco2)cc1Cl` [furosemide], in assay [1], the “compensation of the decrease in PaO2 induced by HCl aspiration” value is on record as “could be compensated”. For the same compound, the PaO2 was found to be 120.5±33.1 mmHg in assay [1] (60 min after HCl aspiration (before drug administration)); 287.9±78.2 mmHg in assay [1] (60 min after administration (180 min after HCl aspiration), control 171.1); 490.3±29.0 mmHg in assay [1] (setting [5]). The PAP in assay [2] (after 60 min of administration (120 min after HCl aspiration), control 18.9±2.4) amounted to 20.4±2.3 mmHg; in assay [2] (setting [5]) it was 12.7±1.9 mmHg. Moreover, the “BP lowering action / changes in BP” value in assay [3] is given as “No significant changes”. Further, the “intensity of diuretic action” value in assay [4] is reported as “comparable to each other”.
